In PMC8344021, “Discovery of Small Molecule Bak Activator for Lung Cancer Therapy” (Theranostics, 2021):

Assays:
mouse Bak protein = target: T1, mouse Bak protein (Mus musculus, UniProt O08734); assay: Isothermal titration calorimetry (ITC), mouse protein; type: binding; conditions: mouse wild type Bak
T1 construct: His tag; made in house; host or cells: Escherichia coli BL21 DE3
Protocol: The binding affinity of BKA-073 with Bak protein was examined by isothermal titration calorimetry (ITC) assay as described, [28]. ITC assay was carried out in the auto-iTC200 instrument (MicroCal, GE) at 25 °C. Purified recombinant human or mouse Bak protein was loaded into a 96 Deepwell PP plate. BKA-073 compound was then titrated stepwise into the protein for a total of 16 injections. Reference power and initial delay were set as 5 µCal/sec and 60s, respectively. A string speed of 750 rpm was used for the ITC measurements. The binding constant (Kd) value was determined by fitting the titration curve to a one-site binding mode, using the Origin software provided by the manufacturer.
Figure S3. […] The binding constant (KD) value was determined by fitting of the titration curve to a 1- […]
(1 x 10^5 cells) was transferred to a 5 ml culture tube, followed by the addition of 5 μl of FITC Annexin V and 5 μl propidium iodide (PI). […] Samples were analyzed by flow cytometry (BD FACSCantoTMII, BD Biosciences, San Jose, CA). ∆% cell death was calculated with the formula: (% cell death treated - % cell death non-treated) as described […]
Fluorescence polarization (FP) assay
Fluorescence polarization assay was carried out as described previously. […] The FP values (in millipolarization units) were measured using a fluorescence microplate reader at 485/530 nm (Gemini XPS, Molecular Devices). […]

DMS114 xenografts = assay: SCLC DMS114 xenografts, tumor growth; type: in vivo, Nu/Nu nude mice; conditions: 15mg/kg/d i.p., 2-4 weeks
Protocol: Six-week-old female Nu/Nu nude mice were purchased from Envigo (Indianapolis, IN) and housed under pathogen-free conditions in microisolator cages. The animal propagation protocol was approved by the Emory Institutional Animal Care and Use Committee (IACUC) and the Emory Animal Ethics Committee. 3×10^6 lung cancer cells were injected into subcutaneous tissue in the flank region of nude mice. The tumors were allowed to grow to an average volume of 150~200 mm^3 prior to initiation of therapy as previously described, [29]. Patient-derived xenografts (PDXs, TKO-002 and TKO-005) were established as part of an IRB-approved phase II co-clinical trial of arsenic trioxide in patients with relapsed SCLC who had failed standard platinum-based chemotherapy. Tumor samples were obtained by image-guided biopsy and were directly implanted into Nu/Nu nude mice without intervening propagation in plastic culture plates. Direct serial propagation of growing tumor occurred for up to 5 generations. The animal propagation protocol was approved by the Emory IACUC and the Emory Animal Ethics Committee. Mice with SCLC and NSCLC xenografts or PDXs were treated with BKA-073 intraperitoneally (i.p.) or venetoclax orally as indicated. During treatment, tumor volume (V) was measured by caliper measurements once every two days as described previously. Mice were euthanized by CO2 inhalation at the end of treatment. […]

T1 sequence (O08734 whole entry): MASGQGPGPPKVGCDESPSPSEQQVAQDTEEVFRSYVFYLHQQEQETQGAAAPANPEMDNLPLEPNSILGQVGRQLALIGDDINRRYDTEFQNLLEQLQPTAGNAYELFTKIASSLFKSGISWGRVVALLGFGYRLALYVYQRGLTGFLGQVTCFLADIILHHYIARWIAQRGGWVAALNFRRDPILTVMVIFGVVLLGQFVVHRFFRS

SMILES: COc1ccc2nc3ccccc3c(NCCNCC(C)O)c2c1 (centres unmarked) [BKA-073]
- Kd (mouse Bak protein): 93.4 ± 7.91 nM
- tumor growth (DMS114 xenografts): potently suppressed tumor growth
